This is an account of results in patent US7517517B2 (Janssen Pharmaceutica N.V., priority 2002, dated 2009).

For experiment [1], the target named is T1, rat mGlu1a receptor (Rattus norvegicus, UniProt P23385).
T1 construct: host or cells: CHO-dhfr- cells
As to the kind of experiment: Intracellular Ca2+ response in rat mGlu1a receptor expressing CHO-dhfr− cells (FLIPR). To be noted: CHO-dhfr− cells expressing rat mGlu1a; glutamate 30 μM; read-out: IC50, inhibition of the glutamate-induced increase in [Ca2+]i. It is filed as cell-based.

The target of experiment [2] is T1, rat mGlu1a receptor. Nature of the experiment: [3H]Compound A binding to rat mGlu1a receptor CHO-dhfr− membranes (saturation, kinetics, inhibition).
In experiment [3] the target is T1, rat mGlu1a receptor. Nature of the experiment: [3H]quisqualate binding to rat mGlu1a receptor CHO-dhfr− membranes (saturation, inhibition). To be noted: rat mGlu1a receptor CHO-dhfr− membranes.
Experiment [4] addresses T2, mGlu1 receptor (Rattus norvegicus, UniProt P23385). Nature of the experiment: [3H]Compound A binding to rat brain membranes (cortex, hippocampus, striatum, cerebellum). The note with it: 10 μM; 2.5 nM [3H]Compound A (FIG. 9). The procedure:
Tissue preparation. Male Wistar rats (˜200 g) were sacrificed by decapitation. The brains were rapidly removed and cortex, hippocampus, striatum and cerebellum were immediately dissected. The fresh tissue was homogenized with an Ultra Turrax in 20 volumes of 50 mM Tris-HCl, pH 7.4 and tissue was centrifuged at 23,500 g for 10 min. After homogenisation using a DUAL homogeniser, membranes were washed twice by centrifugation at 23,500 g for 10 min. The final pellet was suspended in 10 volumes of 50 mM Tris-HCl, pH 7.4 and frozen at −80° C.
In vitro binding assay. After thawing, membranes from rat cortex, cerebellum, striatum and hippocampus were rehomogenized using a DUAL and suspended in ice-cold binding buffer containing 50 mM Tris-HCl, 1.2 mM MgCl2, 2 mM CaCl2, pH 7.4. The binding assay was carried out in a total volume of 0.5 ml containing 2.5 nM [^3H]Compound A and a membrane aliquot corresponding to 40 μg for cerebellar membranes, 60 μg for hippocampal membranes, 80 μg for striatal membranes or 150 μg for cortical membranes. […] After incubation for 30 min at 4° C., the labelled membranes were washed and harvested by rapid vacuum filtration over Whatman GF/C glass-fibre filters using a 40-well filtration manifold and radioactivity collected on the filters was counted as above.
Data analysis was performed using the GraphPad Prism program (GraphPad Prism Software, Inc., San Diego, Calif.). Saturation binding experiments were analysed using a non-linear regression analysis. Inhibition curves were fitted using non-linear regression analysis fitting the one-site competition equation: Y=Bottom+((Top−Bottom)/1+10^X-LogIC50). Ki values were calculated using the Cheng-Prusoff equation: Ki=IC50/[1+([C]/KD)] where C is the concentration of radioligand and KD is the dissociation constant of the radioligand (Cheng and Prusoff, Biochem. Pharmacol. 22, 3099-3108, 1973). The observed on (kob) and off (koff) rate were calculated from association-dissociation curves using the one-phase-exponential association and decay equations in the Prism program, respectively. kon was calculated by subtracting koff from kob and dividing by the radioligand concentration. The two-tailed Student's t-test was used for statistical evaluation of the binding data: * p<0.05, ** p<0.01 and *** p<0.001. The Dunnett's t-test following a 2-way analysis of variance (with as factors compound concentration and experiment) were used to analyse the data from the IP experiments.

Experiment [5] has as its target T2, mGlu1 receptor. As to the kind of experiment: [3H]Compound A binding and autoradiography on rat brain sections. The note with it: 10 μM (FIG. 10, panel C). The procedure: Tissue preparation. Male Wistar rats (200 g) were sacrificed by decapitation. Brains were immediately removed from the skull and were rapidly frozen in dry-ice-cooled 2-methylbutane (−40° C.). Brains were then stored at −70° C. until sectioning. Twenty-micrometer-thick sagittal sections were cut using a Leica C3050 cryostat microtome (Leica Microsystems, Wetzlar, Germany) and thaw-mounted on SuperFrost Plus microscope slides (Menzle-glaser, Germany). The sections were then kept at −70° C. until use.
Receptor autoradiography. Sections were thawed and dried under a stream of cold air, preincubated (3×5 min) in 50 mM Tris-HCl, 1.2 mM MgCl2, 2 mM CaCl2, 0.1% BSA pH 7.4 at room temperature. […] After the incubation, the excess of radioligand was washed off (3×5 min) in ice-cold buffer containing 50 mM Tris-HCl, 1.2 mM MgCl2 and 2 mM CaCl2, followed by a rapid dip in cold distilled water. The sections were dried under a stream of cold air and then exposed to [^3H]Hyperfilm (Amersham, UK) for 6 weeks at room temperature. The films were developed manually in Kodak D19 and fixed with Kodak Readymatic. Some sections were exposed to a Fuji Imaging Plate for 2 days at room temperature and scanned using a Fujix Bass 2000 phosphoimager.

Experiment [6] concerns mGlu1 receptor. To be noted: literature; cited from earlier work.

Bounds are passed on as bounds.

T1 sequence (P23385 19-1199): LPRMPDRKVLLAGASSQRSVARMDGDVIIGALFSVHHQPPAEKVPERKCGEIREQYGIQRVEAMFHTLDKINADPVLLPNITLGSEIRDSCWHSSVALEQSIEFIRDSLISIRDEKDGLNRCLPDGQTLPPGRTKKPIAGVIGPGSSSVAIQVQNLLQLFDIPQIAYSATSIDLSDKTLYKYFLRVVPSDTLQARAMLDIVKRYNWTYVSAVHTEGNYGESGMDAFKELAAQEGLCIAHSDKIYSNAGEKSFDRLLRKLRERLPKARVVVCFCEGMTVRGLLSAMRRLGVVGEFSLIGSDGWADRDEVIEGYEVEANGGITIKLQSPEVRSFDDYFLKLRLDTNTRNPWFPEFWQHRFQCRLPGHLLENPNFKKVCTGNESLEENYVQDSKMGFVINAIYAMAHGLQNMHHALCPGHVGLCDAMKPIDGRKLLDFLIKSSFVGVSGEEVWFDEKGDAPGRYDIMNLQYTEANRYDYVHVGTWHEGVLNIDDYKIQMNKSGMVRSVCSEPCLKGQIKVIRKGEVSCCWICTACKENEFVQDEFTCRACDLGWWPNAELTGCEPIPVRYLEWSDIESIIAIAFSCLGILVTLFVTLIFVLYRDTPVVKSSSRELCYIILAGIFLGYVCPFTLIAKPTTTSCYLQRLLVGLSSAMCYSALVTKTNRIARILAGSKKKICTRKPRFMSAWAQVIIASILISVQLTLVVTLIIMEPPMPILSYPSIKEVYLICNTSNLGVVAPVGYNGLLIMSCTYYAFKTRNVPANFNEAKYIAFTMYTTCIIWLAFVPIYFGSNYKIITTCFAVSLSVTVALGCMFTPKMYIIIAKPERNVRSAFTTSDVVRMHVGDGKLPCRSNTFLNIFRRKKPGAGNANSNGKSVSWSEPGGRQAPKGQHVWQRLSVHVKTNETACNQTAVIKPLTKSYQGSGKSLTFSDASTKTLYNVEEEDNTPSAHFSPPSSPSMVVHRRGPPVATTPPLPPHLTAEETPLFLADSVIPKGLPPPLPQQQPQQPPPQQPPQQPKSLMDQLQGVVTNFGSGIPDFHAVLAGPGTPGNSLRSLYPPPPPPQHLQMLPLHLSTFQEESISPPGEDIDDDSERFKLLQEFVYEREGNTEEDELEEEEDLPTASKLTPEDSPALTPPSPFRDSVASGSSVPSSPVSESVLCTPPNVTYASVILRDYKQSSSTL

With `C=C1C[C@@H]2COC(=O)[C@]2(Cc2ccc3ccccc3c2)C1` [BAY 36-7620, reference compound], at rat mGlu1a receptor [1], the IC50 stood at 0.161 ± 0.038 µM. In addition, the inhibition constant (Ki) on rat mGlu1a receptor [2] (2.5 nM [3H]Compound A, 30 min at 4° C., mean ± SD of 3–4 experiments) is 11.2 ± 0.93 nM; on rat mGlu1a receptor [3] (inhibition of [3H]quisqualate binding, mean ± SD of 2 experiments), above 1000 µM. Also, the Hill coefficient on rat mGlu1a receptor [2] (inhibition of [3H]Compound A-binding, mean ± SD of 3–4 experiments) is 0.95 ± 0.02. Moreover, the “inhibition of [3H]Compound A binding (in words)” value at rat mGlu1a receptor [2] (rat mGlu1a receptor CHO-dhfr− membranes) is “nanomolar concentrations”. Also, the “effect on [3H]quisqualate binding (in words)” value on rat mGlu1a receptor [3] was “did not affect”. In addition, the “inhibition of [3H]Compound A binding to rat cerebellar membranes” value on mGlu1 receptor [4] is recorded as “maximally inhibited”. Further, at mGlu1 receptor [5], the “inhibition of [3H]Compound A binding to rat brain sections” value is listed as “completely inhibited”. Also, the “potency of mGlu1 receptor block” value with mGlu1 receptor [6] is 0.16 µM.
